Experimental findings from patent US20220325233A1, “MEDIUM SUPPLEMENT FOR HIGH-YIELD INDUSTRIAL CULTURE OF FASTIDIOUS ANAEROBES AND MEDIUM COMPOSITION CONTAINING THE SAME” (priority 2020, published 2022) are described below.

This experiment relates to Akkermansia muciniphila EB-AMDK19 (KCTC 13761BP) strain. Kind of experiment: Growth (change in optical density, ΔOD600) in anaerobic batch culture. The following applies: for Growth (ΔOD600): after 72 hours of culture; for Growth (AOD 600): after 48 hours of culture. In kind it is cell-based. On the procedure: In addition, in the following examples, the concentration of anaerobes (amount of biomass produced) was determined by measuring the optical density of the culture medium at 600 nm using a spectrophotometer during the culture period. ΔOD was calculated as the difference in absorbance between the initial stage of culture and after 48 hours (or 72 hours) of culture.
Based on soy casein digest broth (tryptic soy broth (TSB)), the optimal combination of substrates and components that can replace mucin was investigated.
Next, changes in the optical density (OD600) of the strain were measured, and the results of the measurement are shown in Table 3 below.
In addition, to find the optimal concentration of cobalamin, the strain was cultured while changing the concentrations of cobalamin, and then changes in the optical density (OD600) of the strain were measured.
In order to find the essential components necessary for high-concentration culture of anaerobes and an optimal combination thereof, the Akkermansia muciniphila strain was cultured in media having various combinations of components under the same conditions.
An experiment was performed in the same manner as in Example 1 above, except that the medium shown in Table 2 above were used and the kind of strain cultured was changed as shown in Table 7 below. Specifically, each Akkermansia muciniphila strain was inoculated into the medium at a ratio of 0.1% v/v, and then cultured at 37° C. under anaerobic conditions (90% N2, 5% CO2, and 5% H2) for 24 to 48 hours.

Setting [1] is: single vitamin added at 0.2 mg/L.
The mark [2] stands for this setting: single vitamin added at 0.1 mg/L.

Consider `Cc1ncc(C[n+]2csc(CCO)c2C)c(N)n1` [Medium B1], for which, under setting [1], the “Growth (ΔOD600)” value worked out at 0.352.

As to `Nc1ccc(C(=O)O)cc1` [Medium B10], the “Growth (ΔOD600)” value under setting [2] is 0.335.

Turning to `Cc1ncc(CO)c(CO)c1O` [Medium B6], the “Growth (ΔOD600)” value (single vitamin added at 0.5 mg/L) worked out at 0.337.

As to `O=C(O)CCCC[C@@H]1SC[C@@H]2NC(=O)N[C@@H]21` [Medium B7], the “Growth (ΔOD600)” value (single vitamin added at 0.02 mg/L) is recorded as 0.344.

Take `Nc1nc(=O)c2nc(CNc3ccc(C(=O)N[C@@H](CCC(=O)O)C(=O)O)cc3)cnc2[nH]1` [Medium B9]: the “Growth (ΔOD600)” value (single vitamin added at 0.05 mg/L) stood at 0.348.

Turning to `O=C(O)c1cccnc1` [Medium B3], the “Growth (ΔOD600)” value under setting [1] was 0.342.

With `Cc1cc2nc3c(=O)[nH]c(=O)nc-3n(C[C@H](O)[C@H](O)[C@H](O)CO)c2cc1C` [Medium B2], under setting [2], the “Growth (ΔOD600)” value stood at 0.334.

As for Cyanocobalamin, the “Growth (AOD 600)” value (Cyanocobalamin 0.05 mg/L) worked out at 0.563 ± 0.012; the “Growth (AOD 600)” value (Cyanocobalamin 0.1 mg/L) is recorded as 0.576 ± 0.014; the “Growth (AOD 600)” value (Cyanocobalamin 0.2 mg/L) is recorded as 0.577 ± 0.008; the “Growth (AOD 600)” value (Cyanocobalamin 0.5 mg/L) is 0.575 ± 0.011; the “Growth (AOD 600)” value (Cyanocobalamin 1 mg/L) is 0.581 ± 0.003; the “Growth (AOD 600)” value (Cyanocobalamin 5 mg/L) was 0.571 ± 0.007. Besides, the “optimal concentration in the medium” value (from Table 5 concentration series) amounted to 0.1 mg/L. Also, the “Growth (ΔOD600)” value under setting [2] was found to be 0.575.

Regarding `CC(C)(CO)[C@@H](O)C(=O)NCCC(=O)O` [Medium B5], under setting [2], the “Growth (ΔOD600)” value is 0.347.
